Data taken from patent US20260097111A1, “ETHER LIPIDS FOR HYPERACTIVATION OF MAMMALIAN DENDRITIC CELLS” (priority 2022, published 2026).
Entries after “also recorded” stand apart in the source; their conditions may differ.

Experiments:
[1] = system: human monocyte-derived dendritic cells (moDCs); test: IL-1β secretion by human moDCs treated with lipid and R848; format: cell-based; settings: for hyperactivation of human dendritic cells: 41.25 μM lipid with R848 (Compound 1 also 20.6 μM); for IL-1β secretion / IL-1β secretion, dependence on the NLRP3 inflammasome: human moDCs; for IL-1β secretion, dependence on the NLRP3 inflammasome: R848 + lipid with or without MCC950, one day, FIG. 3B
Method: (§1) Human monocytes were isolated from Leukopaks purchased from Miltenyi using the StraightFrom Leukopak CD14 microbead kit (Miltenyi). Isolations were completed following manufacturer's instructions. Monocytes were then aliquoted and frozen in fetal bovine serum containing 10% dimethyl sulfoxide. For studies with monocyte-derived dendritic cell (moDC) cultures, monocytes were thawed and cultured in RPMI medium containing 10% FBS, 50 units/mL penicillin, […] streptomycin, 2 mM L-glutamine, 1 mM sodium pyruvate, […] beta-mercaptoethanol, 10 mM HEPES, and Gibco MEM non-essential amino acids (R10 media). To differentiate monocytes into moDCs, recombinant human GM-CSF (50 ng/mL) and IL-4 (25 ng/mL) were added to R10 media. Cells were cultured for 6 days with GM-CSF and IL-4, with an additional cell feeding with R10 containing GM-CSF and IL-4 on day 3.
Six days after differentiation, moDC were collected and counted. Cells were plated into 96-well flat-bottom plates at 1×10^5 cells/well. Cells were treated with or without 1 μg/mL R848 (final) and with or without a hyperactivating lipid (or vehicle control). In some experiments, MCC950, an inhibitor of the NLRP3 inflammasome, was added at a final concentration of 10 uM. In some experiments, nigericin, which causes NLRP3 inflammasome activation and subsequent pyroptosis, was used as a positive control at 20 uM. Cells and stimuli totaled a final volume of […].
Lipid stocks were then further diluted in PBS to treat cells.
After an overnight incubation, cells and culture supernatant were used for downstream readouts. One hundred and fifty microliters of cell supernatant were collected. Viability was measured using the CellTiter-Glo assay (Promega) which measures ATP content from cells. Fifty microliters of CellTiter-Glo reagent were added to 50 μL of cells. Luminescence was quantified on a SpectraMax m5e plate reader using an integration time of 500 milliseconds. Viability data were set relative to control conditions where cells were treated with only R848. To measure IL-1β secretion, the human IL-1β Lumit kit (Promega) was used to assay cell culture supernatant. Culture supernatant samples were incubated with enzyme-linked antibodies in a 384-well plate for 1 hour before addition of luminescent substrate. Samples were measured for luminescence with an integration time of 500 milliseconds. IL-1β concentrations of samples was determined by interpolation from a standard curve using 4-parameter logistic regression analysis. Studies were performed on three different human donor samples, and each biological condition was tested in triplicate. Graphed data represent means from each donor.
as §1, with “Human moDC Production. Human” for “Human”, “(Miltenyi) according to the” for “(Miltenyi). Isolations were completed following”, “To differentiate” for “For studies with”, “pyruvate, and” for “pyruvate,”, “beta-mercaptoethanol” for “beta-mercaptoethanol, 10 mM HEPES, and Gibco MEM non-essential amino acids”
Hyperactivating Lipid Formulation—Compound 10. Lipid stocks were formulated at 200 μg/mL lipid in 5% Kolliphor P407 (KP407) in PBS.

human moDCs = test: IL-6 secretion by human moDCs; format: cell-based; settings: human moDCs, 41.25 μM lipid with R848, compared with R848 + vehicle; FIG. 16
murine FLT3L-DCs = test: Murine bone marrow-derived FLT3L-DCs hyperactivation; format: cell-based, mice; settings: FLT3L DCs; for IL-1β secretion: 1 μg/mL R848 2-3 hours alone or then 41 uM lipid, 48 hours, FIG. 4A; for viability: R848 then 41 uM lipid, FIG. 4B
Method: Murine bone marrow-derived FLT3L-DCs generation. Leg femur and tibia were removed from mice, cut with scissors, and flushed into sterile tubes. Bone marrow suspension was treated with ACK for 1 minute, then passed through a 40 um cell strainer. Cells were counted and resuspended in media consisting of complete IMDM containing 10% FBS, penicillin and streptomycin, and supplements of L-glutamine and sodium pyruvate (I10). […] For each experiment, 5 mice are used to collect BM and to generate DCs.
Lipid preparation. […] Lipid stocks were then further diluted in PBS to treat cells.
Murine bone marrow-derived FLT3L-DCs hyperactivation. BMDCs were harvested on day 8 post differentiation, washed with PBS, and re-plated in FLT3L-containing I10 at a concentration of 1×10^5 cells/mL. Cells were primed with or without 1 μg/mL R848 (final) then treated with or without a hyperactivating lipid (or vehicle control). Forty-eight hours post stimulation, supernatants were collected for cytokine measurement. Viability was measured using the CellTiter-Glo assay (Promega) which measures ATP content from cells. Fifty microliters of CellTiter-Glo reagent were added to 50 μL of cells. Luminescence was quantified on a SpectraMax m5e plate reader using an integration time of 500 milliseconds. Viability data were set relative to control conditions where cells were treated with R848. IL-1β and TNFα cytokine were measured using sandwich ELISAs (Invitrogen).

[2] = 41.25 μM lipid with R848, FIG. 17
[3] = 41.3 uM lipid with R848, FIG. 11
[4] = 41.3 uM lipid with R848 and MCC950, FIG. 11
[5] = 24 hours, lipid in 4% KP407 with R848, FIG. 2B
[6] = 20.6 uM lipid with R848 and 10 uM MCC950, FIG. 14
[7] = 20.6 uM lipid with R848 vs vehicle, FIG. 14

Molecule	hyperactivation of human dendritic cells [1]	IL-1β secretion [1, 2]	IL-1β secretion [1, 3]	IL-1β secretion [1, 5]	IL-1β secretion, dependence on the NLRP3 inflammasome [1]	other results
CCCCCCCCCCCCCCCCCCCCCCOC[C@H](COP(=O)(O)O)OC(=O)NC [Compound 6, (R)-1-(docosyloxy)-3-(phosphonooxy)propan-2-yl methylcarbamate]	did not	induced minimal IL-1β secretion				IL-6 secretion (human moDCs): IL-6 was secreted at similar levels
CCCCCCCCCCCCCCCCCCCCCCOC[C@H](CO)OC(N)=O [Compound 7, (S)-1-(docosyloxy)-3-hydroxypropan-2-yl carbamate]			induced secretion of IL-1β	produced significantly more IL-1β	depend on the NLRP3 inflammasome for IL-1β secretion	hyperactivation of moDC (IL-1β secretion with maintained viability) ([1]; 41.3 uM lipid with R848): hyperactivating lipids; IL-1β secretion [1, 4]: significantly reduced; IL-1β secretion (murine FLT3L-DCs): induced the lowest levels of IL-1β secretion; viability (murine FLT3L-DCs): viability was not compromised
CCCCCCCCCCCCCCCCCCCCCCOC[C@H](CO)OC(=O)NC [Compound 8, (S)-1-(docosyloxy)-3-hydroxypropan-2-yl methylcarbamate]			induced secretion of IL-1β	produced significantly more IL-1β	depend on the NLRP3 inflammasome for IL-1β secretion	hyperactivation of moDC (IL-1β secretion with maintained viability) ([1]; 41.3 uM lipid with R848): hyperactivating lipids; IL-1β secretion [1, 4]: significantly reduced; IL-1β secretion (murine FLT3L-DCs): induced the lowest levels of IL-1β secretion; viability (murine FLT3L-DCs): viability was not compromised
CCCCCCCCCCCCCCCCCCCCCCOC[C@@H](O)CO [Compound 9, (S)-3-(docosyloxy)propane-1,2-diol]			robustly induced IL-113 secretion	produced significantly more IL-1β	depend on the NLRP3 inflammasome for IL-1β secretion	IL-1β secretion ([1]; 41.25 μM lipid with R848 vs vehicle control, FIG. 8): produced significantly more IL-1β
CCCCCCCCCCCCCCCCCCOC[C@H](CO)OC(=O)NC [Compound 11, (S)-1-hydroxy-3-(octadecyloxy)propan-2-yl methylcarbamate]	hyperactivating lipids; also recorded: hyperactivated dendritic cells	significantly increased IL-1β secretion				hyperactivation of moDC (IL-1β secretion with maintained viability) ([1]; 20.6 uM lipid with R848): hyperactivating lipids; IL-1β secretion [1, 6]: inhibited; IL-1β secretion [1, 7]: significantly more IL-1β was detected
CCCCCCCCCCCCCCCCCCOC[C@@H](O)CO [Compound 12, (S)-3-(octadecyloxy)propane-1,2-diol]	hyperactivating lipids; also recorded: hyperactivated dendritic cells	significantly increased IL-1β secretion				hyperactivation of moDC (IL-1β secretion with maintained viability) ([1]; 20.6 uM lipid with R848): hyperactivating lipids; IL-1β secretion [1, 6]: inhibited; IL-1β secretion [1, 7]: significantly more IL-1β was detected
CCCCCCCCCCCCCCCCCCOC[C@H](COP(=O)(O)O)OC(=O)NC [Compound 13, (R)-1-(octadecyloxy)-3-(phosphonooxy)propan-2-yl methylcarbamate]	hyperactivating lipids; also recorded: hyperactivated dendritic cells	significantly increased IL-1β secretion				
CCCCCCCCCCCCCCCCCCCCCCOC[C@H](CO)OC(=O)N(C)C [Compound 14, (S)-1-(docosyloxy)-3-hydroxypropan-2-yl dimethylcarbamate]	did not	induced minimal IL-1β secretion				
(R)-2-((dimethylcarbamoyl)oxy)-3-ethoxypropyl (2-(trimethylammonio)ethyl) phosphate-icosane (1/1) [Compound 16]	hyperactivating lipids; also recorded: hyperactivated dendritic cells	significantly increased IL-1β secretion				
(R)-3-(docosyloxy)-2-((methylcarbamoyl)oxy) propyl (2-(trimethylammonio) ethyl) phosphate [Compound 4]	hyperactivating lipids; also recorded: hyperactivated dendritic cells	significantly increased IL-1β secretion				
